Data from EP4631940A1, “COMPOUND TARGETING PAN-KRAS PROTEIN DEGRADATION AGENT AND USE THEREOF” (Betta Pharmaceuticals Co., Ltd., priority 2022, dated 2024).
Where two headings read alike, the source gives them in different places.

Legend:
AGS = assay: Cell proliferation experiment (CellTiter-Glo); assay type: cell-based; details: read-out: IC50(nM) AGS
SW620 = assay: Cell proliferation experiment (CellTiter-Glo); assay type: cell-based; details: read-out: IC50(nM) SW620
H358 = assay: Cell proliferation experiment (CellTiter-Glo); assay type: cell-based; details: H358, KRAS mutation type G12C, 96 h incubation
[1] = PK study in ICR mice (whole blood); assay type: in vivo; details: Female ICR mice, IV 1 mg/kg; for AUC(0-t) / half-life / C0: mouse; for C0: read-out: C0
Description: Example 8 PK Study of Compound in ICR Mice (whole blood)
The compound was mixed with the vehicle (10% DMSO / 5% Solutol HS 15 / 85% saline), vortexed, and sonicated to prepare a clear solution at 0.2 mg/mL. Female ICR mice aged 6 to 7 weeks (non-fasted) were intravenously administered the compound. Whole blood was collected at specified time points. Drug concentration was analyzed by LC-MS/MS, and pharmacokinetic parameters were calculated using Phoenix WinNonlin software (Pharsight Corporation, USA). Table 11 Mouse PK Data for Intravenous Compound Monotherapy

KRAS G12D [2] = target: T1, KRAS G12D (Homo sapiens, UniProt P01116, G12D)
in vitro [3] = details: human, microsomes
in vitro [4] = details: rat, microsomes
in vitro [5] = details: mouse, microsomes
in vitro [6] = details: dog, microsomes
KRAS G12D [7] = target: T1, KRAS G12D; assay: cell-based; details: AGS
[8] = Phase II metabolic stability in liver microsomes (UDPGA); assay type: in vitro ADME, Human; details: Human, 0.5 mg/mL liver microsomes, Alamethicin
Description: (§1) Example 6 Study on Phase II Metabolic Stability of Compounds in Human, Rat, Mouse, and Dog Liver Microsomes
(§2) Experimental Method: A diluted solution containing 0.5 mg/mL liver microsomes with K-buffer and MgCl2 was prepared: Table 8
(§3) 358 µL of the diluted liver microsome solution prepared in Table 8 above was added to the pre-set wells of the incubation plate, labeled as the incubation plate. 2 µL of compound working solution (400 µM) (final concentration of DMSO ≤ 0.5%) was added. The incubation plate was placed in a 37°C constant temperature shaker and pre-incubated for 5-10 min. Then, 40 µL of UDPGA (20 mM) was added to the incubation plate to initiate the reaction, and timing started. At each predetermined time point (0, 5, 15, 60 min), 50 µL of samples were taken from the incubation plate and added to the precipitation plate containing 200 µL of internal standard. Samples were mixed thoroughly, centrifuged at 4°C and 5000 rpm for 10 minutes. The supernatant after centrifugation was added to pre-added ultrapure water at an appropriate ratio, mixed thoroughly on a shaker at room temperature, and subjected to LC-MS/MS analysis.
(§4) Data processing: The peak areas of the analyte and the internal standard in samples were measured at different time points. The peak area ratio of the analyte to the internal standard at non-zero time points compared to the peak area ratio of the analyte to the internal standard in the 0 min sample was used to calculate the remaining percentage of the parent drug.

[9] = as above; assay type: in vitro ADME; details: 0.5 mg/mL liver microsomes, Alamethicin
Description: as §1, §2, §3, §4

PK59 = assay: Cell proliferation experiment (CellTiter-Glo); assay type: cell-based; details: PK-59; PK59, KRAS mutation type G12D; 96 h incubation

T1 sequence (P01116 1-188 isoform P01116-2 G12D): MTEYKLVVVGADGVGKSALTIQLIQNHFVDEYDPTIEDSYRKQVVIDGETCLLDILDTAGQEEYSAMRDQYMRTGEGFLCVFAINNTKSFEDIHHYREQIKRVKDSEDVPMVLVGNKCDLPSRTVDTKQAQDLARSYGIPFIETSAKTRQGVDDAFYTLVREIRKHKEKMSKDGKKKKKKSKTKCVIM

Compound	IC50 (AGS; Homo sapiens, AGS, 96 h)	IC50 (SW620; Homo sapiens, SW-620, 96 h)	IC50 (H358; Homo sapiens, NCI-H358)	DC50 (KRAS G12D [2])	microsomal CLint (in vitro [3])	microsomal CLint (in vitro [4])	microsomal CLint (in vitro [5])	microsomal CLint (in vitro [6])	Dmax (KRAS G12D [7])	other results
CCc1c(F)ccc2cc(O)cc(-c3ncc4c(N5CCC[C@@](C)(O)C5)nc(OCC5(CN6CCC(c7ccc(-c8cn([C@H](C(=O)N9C[C@H](O)C[C@H]9C(=O)N[C@@H](C)c9ccc(-c%10scnc%10C)cc9)C(C)C)nn8)cc7)CC6)CC5)nc4c3F)c12 [Compound 133]	13 nM	74 nM	48 nM	17 nM	7.4 µL/min/mg	7.2 µL/min/mg	8 µL/min/mg	9.3 µL/min/mg	95%	Cl_obs [1]: 14.2 mL/min/kg; Vss_obs [1]: 2.49 L/kg; AUC(0-t) [1]: 1200 ng·h/mL; half-life [1]: 5.77 h; C0 [1]: 2840 ng/mL
C=C1CN2[C@@H](COC(=O)N3CCC4(CC3)CC(c3cn([C@H](C(=O)N5C[C@H](O)C[C@H]5C(=O)N[C@@H](C)c5ccc(-c6scnc6C)cc5)C(C)C)nn3)C4)CC[C@@]2(COc2nc(N3CCC[C@@](C)(O)C3)c3cnc(-c4cc(O)cc5ccc(F)c(CC)c45)c(F)c3n2)C1 [Compound 143]	16 nM	58 nM	24 nM	12 nM	–	–	–	–	95%	–
CCc1c(F)ccc2cc(O)cc(-c3ncc4c(N5CCC[C@@](C)(O)C5)nc(OCC5(CN6CCC(Oc7cc(-c8cn([C@H](C(=O)N9C[C@H](O)C[C@H]9C(=O)N[C@@H](C)c9ccc(-c%10scnc%10C)cc9)C(C)C)nn8)ccn7)CC6)CC5)nc4c3F)c12 [Compound 136]	10 nM	53 nM	6.6 nM	14 nM	19.6 µL/min/mg	8 µL/min/mg	22.1 µL/min/mg	20.8 µL/min/mg	95%	–
C=C1CN2[C@H](COCc3ccc(-c4cn([C@H](C(=O)N5C[C@H](O)C[C@H]5C(=O)N[C@@H](C)c5ccc(-c6scnc6C)cc5)C(C)C)nn4)cc3)CC[C@@]2(COc2nc(N3CCC[C@@](C)(O)C3)c3cnc(-c4cc(O)cc5ccc(F)c(CC)c45)c(F)c3n2)C1 [Compound 122]	28 nM	87 nM	–	22 nM	46.4 µL/min/mg	8.5 µL/min/mg	24.8 µL/min/mg	53 µL/min/mg	95%	60 minutes remaining percentage % Human [8]: 76.9%; 60 minutes remaining percentage % Dog [9]: 99.4%; 60 minutes remaining percentage % Mouse [9]: 105%; 60 minutes remaining percentage % Rat [9]: 96.5%
CCc1c(F)ccc2cc(O)cc(-c3ncc4c(N5CCC[C@@](C)(O)C5)nc(OCC5(CN6CCC(Oc7ccc(-c8cn([C@H](C(=O)N9C[C@H](O)C[C@H]9C(=O)N[C@@H](CO)c9ccc(-c%10ccnn%10CC)cc9)C(C)C)nn8)cn7)CC6)CC5)nc4c3F)c12 [Compound 160]	14 nM	88 nM	17 nM	2 nM	–	–	–	–	95%	IC50 (PK59): 19.5 nM
CCc1c(F)ccc2cc(O)cc(-c3ncc4c(N5CCC[C@@](C)(O)C5)nc(OCC5(CN6CCC7(CC6)CN(c6ccc(-c8cn([C@H](C(=O)N9C[C@H](O)C[C@H]9C(=O)N[C@@H](C)c9ccc(-c%10scnc%10C)cc9)C(C)C)nn8)cc6)C7)CC5)nc4c3F)c12 [Compound 75]	11 nM	122 nM	40 nM	24 nM	1 µL/min/mg	20.7 µL/min/mg	8.6 µL/min/mg	22.1 µL/min/mg	95%	–
CCc1c(F)ccc2cc(O)cc(-c3ncc4c(N5CCC[C@@](C)(O)C5)nc(OCC5(CN6CCN(C7CN(c8cnc(-c9cn([C@H](C(=O)N%10C[C@H](O)C[C@H]%10C(=O)N[C@@H](C)c%10ccc(-c%11scnc%11C)cc%10)C(C)C)nn9)cn8)C7)CC6)CC5)nc4c3F)c12 [Compound 183]	–	–	–	–	–	–	–	–	–	IC50 (AGS): 3 nM; IC50 (SW620): 11 nM; IC50 (H358): 12 nM
CCc1c(F)ccc2cc(O)cc(-c3ncc4c(N5CCC[C@@](C)(O)C5)nc(OCC5(CN6CCN(C78CC(c9cn([C@H](C(=O)N%10C[C@H](O)C[C@H]%10C(=O)N[C@@H](C)c%10ccc(-c%11scnc%11C)cc%10)C(C)C)nn9)(C7)C8)CC6)CC5)nc4c3F)c12 [Compound 149, (2S,4R)-1-((S)-2-(4-(3-(4-((1-(((7-(8-ethyl-7-fluoro-3-hydroxynaphthalen-1-yl)-8-fluoro-4-((R)-3-hydroxy-3-methylpiperidin-1-yl)pyrido[4,3-d]pyrimidin-2-yl)oxy)methyl)cyclopropyl)methyl)piperazin-1-yl)bicyclic[1.1.1]pent-1-yl)-1H-1,2,3-triazol-1-yl)-3-methylbutanoyl)-4-hydroxy-N-( (S)-1-(4-(4-methylthiazol-5-yl)phenyl)ethyl)pyrrolidine-2-carboxamide]	15 nM	–	–	7.6 nM	–	–	–	–	95%	IC50 (PK59): 57 nM
CCc1c(F)ccc2cc(O)cc(-c3ncc4c(N5CCC[C@@](C)(O)C5)nc(OCC5(CN6CCC(OCc7ccc(-c8cn([C@H](C(=O)N9C[C@H](O)C[C@H]9C(=O)N[C@@H](C)c9ccc(-c%10scnc%10C)cc9)C(C)C)nn8)cc7)CC6)CC5)nc4c3F)c12 [Compound 93]	6.8 nM	86 nM	20 nM	11 nM	23.5 µL/min/mg	10.9 µL/min/mg	8.3 µL/min/mg	28.5 µL/min/mg	95%	–
(2S,4R)-1-((S)-2-(4-(5-((1-((1-(((7-(8-ethyl-7-fluoro-3-hydroxynaphthalen-1-yl)-8-fluoro-4-((R)-3-hydroxy-3-methylpiperidin-1-yl)pyrido[4,3-d]pyrimidin-2-yl)oxy)methyl)cyclopropyl)methyl) piperidin-4-yl)oxy)pyrazin-2-yl)-1H-1,2,3-triazol-1-yl)-3-methylbutanoyl)-4-hydroxy-N-((1R,2R )-2-hydroxy-3-methyl-1-(4-(4-methylthiazol-5-yl)phenyl)butyl)pyrrolidine-2-carboxamide [Compound 184]	–	–	–	–	–	–	–	–	–	IC50 (AGS): 2.7 nM; IC50 (SW620): 11 nM; IC50 (H358): 15 nM
CCc1c(F)ccc2cc(O)cc(-c3ncc4c(N5CCC[C@@](C)(O)C5)nc(OCC5(CN6CCC(Oc7ccc(-c8cn([C@H](C(=O)N9C[C@H](O)C[C@H]9C(=O)N[C@@H](C)c9ccc(-c%10scnc%10C)cc9)C(C)C)nn8)nc7)CC6)CC5)nc4c3F)c12 [Compound 117]	13 nM	47 nM	–	7.5 nM	8.8 µL/min/mg	11.3 µL/min/mg	10.1 µL/min/mg	6.6 µL/min/mg	95%	IC50 (PK59): 18.5 nM
CCc1c(F)ccc2cc(O)cc(-c3ncc4c(N5CCC[C@@](C)(O)C5)nc(OC[C@]56CCCN5[C@@H](COC(=O)N5CCC7(CC5)CC(C(=O)N[C@H](C(=O)N5C[C@H](O)C[C@H]5C(=O)N[C@@H](C)c5ccc(-c8scnc8C)cc5)C(C)(C)C)C7)CC6)nc4c3F)c12 [Compound 88]	33 nM	199 nM	90 nM	–	13.4 µL/min/mg	10.1 µL/min/mg	24.5 µL/min/mg	13.3 µL/min/mg	–	Cl_obs [1]: 4.03 mL/min/kg; Vss_obs [1]: 0.780 L/kg; AUC(0-t) [1]: 4110 ng·h/mL; half-life [1]: 5.61 h; C0 [1]: 5000 ng/mL
C#Cc1c(F)ccc2cc(O)cc(-c3ncc4c(N5CCCn6nc(C(=O)N(C)C)cc6C5)nc(OCC5(CN6CCC(COc7ccc(C(=O)N[C@H](C(=O)N8C[C@H](O)C[C@H]8C(=O)N[C@@H](C)c8ccc(-c9scnc9C)cc8)C(C)(C)C)cc7)CC6)CC5)nc4c3F)c12 [Compound 89]	–	–	–	–	–	–	–	–	–	IC50 (AGS): 193 nM; IC50 (SW620): 1420 nM; IC50 (H358): 635 nM
